Measurements published in article PMC7444661 (Journal of medicinal chemistry, 2019).
Each block holds one compound with its values, some of them ahead of it.

Experiments:
Pharmacokinetics in mice = assay type: in vivo; conditions: oral
[1] = Liver microsome stability; assay type: in vitro ADME, dog, mouse, rat and monkey; conditions: human
PDE4D7-S129D [2] = target: T1, PDE4D7-S129D (Homo sapiens, UniProt Q08499, S190D/S715A/S717A); assay: PDE4D7-S129D inhibition in the presence of bovine serum albumin; conditions: bovine serum albumin at 1 mg/mL
T1 sequence (Q08499 1-748 isoform Q08499-11 S129D/S654A/S656A): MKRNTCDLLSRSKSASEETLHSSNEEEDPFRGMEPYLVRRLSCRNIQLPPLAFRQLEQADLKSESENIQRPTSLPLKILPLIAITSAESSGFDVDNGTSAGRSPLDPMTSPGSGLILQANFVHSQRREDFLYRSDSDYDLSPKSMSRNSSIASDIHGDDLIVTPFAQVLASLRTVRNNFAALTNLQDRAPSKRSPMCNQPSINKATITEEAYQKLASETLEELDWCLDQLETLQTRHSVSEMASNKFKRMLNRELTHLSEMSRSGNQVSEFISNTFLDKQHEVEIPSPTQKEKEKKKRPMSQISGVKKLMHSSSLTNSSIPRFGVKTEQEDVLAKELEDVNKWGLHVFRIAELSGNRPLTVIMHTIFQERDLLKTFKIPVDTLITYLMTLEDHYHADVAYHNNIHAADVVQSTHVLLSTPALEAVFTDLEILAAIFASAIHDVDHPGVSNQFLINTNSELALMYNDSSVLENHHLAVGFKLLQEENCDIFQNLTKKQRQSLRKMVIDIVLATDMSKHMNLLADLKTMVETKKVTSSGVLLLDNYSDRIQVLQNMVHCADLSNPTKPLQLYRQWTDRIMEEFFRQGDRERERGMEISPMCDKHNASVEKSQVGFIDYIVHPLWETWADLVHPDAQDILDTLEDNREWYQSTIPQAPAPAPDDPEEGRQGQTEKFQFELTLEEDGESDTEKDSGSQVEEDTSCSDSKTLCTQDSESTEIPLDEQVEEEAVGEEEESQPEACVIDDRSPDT

cynomolgus monkeys = assay: Emesis in cynomolgus monkeys; assay type: in vivo; conditions: oral doses up to 50 mg/kg
rats [3] = assay: Safety pharmacology, CNS and pulmonary, rats; assay type: in vivo; conditions: up to a maximum oral dose of 60 mg/kg
PDE4D2 = PDE4D2 (Homo sapiens, UniProt Q08499, S715A/S717A); assay: PDE4 coupled enzyme assay of cAMP hydrolysis, PDE4D2; assay type: biochemical; conditions: mean ± SD
Chain of PDE4D2 (Q08499 303-809 S715A/S717A): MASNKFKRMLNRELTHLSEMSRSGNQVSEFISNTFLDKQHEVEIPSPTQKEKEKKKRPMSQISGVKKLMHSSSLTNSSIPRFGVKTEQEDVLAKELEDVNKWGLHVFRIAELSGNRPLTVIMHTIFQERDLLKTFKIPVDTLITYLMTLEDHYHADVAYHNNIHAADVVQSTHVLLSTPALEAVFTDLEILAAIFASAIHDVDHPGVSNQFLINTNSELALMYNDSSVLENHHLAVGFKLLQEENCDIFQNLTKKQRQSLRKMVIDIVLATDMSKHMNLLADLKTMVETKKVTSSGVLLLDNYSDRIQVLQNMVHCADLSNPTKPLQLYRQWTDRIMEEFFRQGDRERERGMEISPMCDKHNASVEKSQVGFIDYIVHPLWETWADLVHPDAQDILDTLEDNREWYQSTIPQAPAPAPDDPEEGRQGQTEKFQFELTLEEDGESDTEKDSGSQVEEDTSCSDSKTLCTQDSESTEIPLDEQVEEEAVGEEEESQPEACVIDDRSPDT

PDE4D7-S129(wt) = PDE4D7-S129(wt) (Homo sapiens, UniProt Q08499, S715A/S717A); assay: PDE4 coupled enzyme assay of cAMP hydrolysis, PDE4D7-S129; assay type: biochemical; conditions: mean ± SD
Chain of PDE4D7-S129(wt) (Q08499 1-748 isoform Q08499-11 S654A/S656A): as the sequence (Q08499 1-748 isoform Q08499-11 S129D/S654A/S656A) above, with D129S counted along it

PDE4D7-S129D [4] = target: T1, PDE4D7-S129D; assay: PDE4 coupled enzyme assay of cAMP hydrolysis, PDE4D7-S129D; assay type: biochemical; conditions: mean ± SD
PDE1-11 = assay: Counter assays against PDE1-11; assay type: biochemical; conditions: read-out: off target IC50 against PDE1-11; BPS Bioscience, all assays
bacteria = assay: Mutagenicity in bacteria
mice [5] = assay: Anesthesia duration test; assay type: in vivo, Male ICR mice; conditions: mouse
PDE4B1-S133D = PDE4B1-S133D (Homo sapiens, UniProt Q07343, S133D/S659A/S661A); assay: PDE4 coupled enzyme assay of cAMP hydrolysis, PDE4B1-S133D; assay type: biochemical; conditions: mean ± SD
Chain of PDE4B1-S133D (Q07343 whole entry S133D/S659A/S661A): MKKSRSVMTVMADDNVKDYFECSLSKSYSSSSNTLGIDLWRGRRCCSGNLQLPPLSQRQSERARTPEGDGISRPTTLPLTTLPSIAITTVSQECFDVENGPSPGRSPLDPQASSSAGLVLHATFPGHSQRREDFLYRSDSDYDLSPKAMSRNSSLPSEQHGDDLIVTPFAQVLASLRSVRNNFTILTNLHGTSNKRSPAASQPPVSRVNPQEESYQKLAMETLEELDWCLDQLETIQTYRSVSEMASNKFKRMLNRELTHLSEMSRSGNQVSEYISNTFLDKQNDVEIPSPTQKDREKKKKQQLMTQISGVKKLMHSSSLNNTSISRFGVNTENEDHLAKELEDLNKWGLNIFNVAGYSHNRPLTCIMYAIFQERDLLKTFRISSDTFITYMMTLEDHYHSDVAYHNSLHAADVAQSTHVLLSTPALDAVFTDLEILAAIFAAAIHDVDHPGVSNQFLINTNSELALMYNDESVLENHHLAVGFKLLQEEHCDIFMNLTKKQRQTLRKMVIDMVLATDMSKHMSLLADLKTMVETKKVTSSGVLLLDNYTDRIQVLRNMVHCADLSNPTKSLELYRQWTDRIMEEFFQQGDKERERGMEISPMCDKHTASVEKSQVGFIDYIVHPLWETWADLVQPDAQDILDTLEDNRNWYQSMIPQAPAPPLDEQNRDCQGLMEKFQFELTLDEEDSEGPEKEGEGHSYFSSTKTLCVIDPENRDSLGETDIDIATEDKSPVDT

dog = assay: Safety pharmacology, cardiovascular function, dog; assay type: in vivo; conditions: up to a maximum oral dose of 100 mg/kg
PDE4D-cat = PDE4D-cat (Homo sapiens, UniProt Q08499, S715A/S717A); assay: PDE4 coupled enzyme assay of cAMP hydrolysis, PDE4D-cat; assay type: biochemical; conditions: mean ± SD
Chain of PDE4D-cat (Q08499 380-743 S715A/S717A): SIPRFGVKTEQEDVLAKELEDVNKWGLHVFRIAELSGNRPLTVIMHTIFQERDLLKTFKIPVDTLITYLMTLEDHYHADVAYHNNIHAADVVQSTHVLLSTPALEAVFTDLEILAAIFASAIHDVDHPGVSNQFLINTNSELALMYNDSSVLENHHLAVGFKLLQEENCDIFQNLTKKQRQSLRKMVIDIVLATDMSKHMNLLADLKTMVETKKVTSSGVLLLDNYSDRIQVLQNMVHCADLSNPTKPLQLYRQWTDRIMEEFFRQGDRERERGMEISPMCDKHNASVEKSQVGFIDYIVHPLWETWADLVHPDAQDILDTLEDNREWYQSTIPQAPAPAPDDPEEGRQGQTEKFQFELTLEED

FMR1 knockout mice = conditions: cited from earlier work
PDE4D3-S54D = PDE4D3-S54D (Homo sapiens, UniProt Q08499, S190D/S715A/S717A); assay: PDE4 coupled enzyme assay of cAMP hydrolysis, PDE4D3-S54D; assay type: biochemical; conditions: mean ± SD
Chain of PDE4D3-S54D (Q08499 1-673 isoform Q08499-2 S54D/S579A/S581A): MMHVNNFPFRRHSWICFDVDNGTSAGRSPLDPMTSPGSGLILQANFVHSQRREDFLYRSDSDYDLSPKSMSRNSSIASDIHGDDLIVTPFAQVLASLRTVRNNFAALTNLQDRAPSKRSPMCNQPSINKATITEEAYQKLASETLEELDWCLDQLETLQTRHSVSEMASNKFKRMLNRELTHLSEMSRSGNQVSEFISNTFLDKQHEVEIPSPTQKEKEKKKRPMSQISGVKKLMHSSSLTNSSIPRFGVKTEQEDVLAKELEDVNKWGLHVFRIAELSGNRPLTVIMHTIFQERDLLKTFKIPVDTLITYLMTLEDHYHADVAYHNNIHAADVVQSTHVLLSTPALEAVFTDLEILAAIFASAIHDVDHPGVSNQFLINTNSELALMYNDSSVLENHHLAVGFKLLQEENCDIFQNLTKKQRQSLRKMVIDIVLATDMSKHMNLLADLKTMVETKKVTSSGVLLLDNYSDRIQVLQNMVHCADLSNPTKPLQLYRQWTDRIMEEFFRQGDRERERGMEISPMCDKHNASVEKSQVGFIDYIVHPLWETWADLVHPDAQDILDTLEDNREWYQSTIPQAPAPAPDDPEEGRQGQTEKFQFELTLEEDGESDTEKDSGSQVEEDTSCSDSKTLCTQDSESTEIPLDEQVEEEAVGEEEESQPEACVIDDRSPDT

humanized PDE4D mice = conditions: cited from earlier work
mice [6] = assay: Mouse novel object recognition after 24-hour delay; assay type: in vivo, Male ICR mice; conditions: mouse NOR
rats [7] = assay: Dose range finding toxicology, rats; assay type: in vivo; conditions: oral dose of 100 mg/kg
dogs = assay: Dose range finding toxicology, dogs; assay type: in vivo; conditions: 100 mg/kg
ferrets = assay: Emesis in ferrets; assay type: in vivo; conditions: oral doses up to 30 mg/kg
rats and dogs = assay: Toxicological studies of 28 and 90 days duration; assay type: in vivo
[8] = Metabolite identification in human hepatocytes; assay type: in vitro ADME; conditions: compound 23 incubated 4 hour with human hepatocytes
[9] = Metabolite identification in rat hepatocytes; assay type: in vitro ADME, male Wistar rats; conditions: compound 23 incubated 4 hour with rat hepatocytes

Hill Slope PDE4D7-S129(wt) dimer basal (PDE4D7-S129(wt)): 0.50 ± 0.1 | Hill Slope PDE4D7-S129D dimer activated (PDE4D7-S129D [4]): 0.66± 0.03 | Hill Slope PDE4B1-S133D dimer activated (PDE4B1-S133D): 0.37 ± 0.04
Structure (SMILES): CCc1cc(Cc2ccc(CC(=O)NCCO)cc2)nc(-c2cccc(Cl)c2)n1 [Compound 29, 2-(4-((2-(3-Chlorophenyl)-6-ethylpyrimidin-4-yl)methyl)phenyl)-N-(2-hydroxyethyl)acetamide]

percentage of metabolite present [8]: <1% | percentage of metabolite present [9]: 29.1%
Structure (SMILES): CCc1cc(Cc2ccc(CC(=O)O)cc2)nc(-c2cccc(Cl)c2)n1 [Compound M6]

Second part, the compound before the results:

Structure (SMILES): CCc1cc(Cc2ccc(CC(N)=O)cc2)nc(-c2cccc(Cl)c2)n1 [Compound 23, 2-(4-((2-(3-Chlorophenyl)-6-ethylpyrimidin-4-yl)methyl)phenyl)acetamide]
extended absorption (Pharmacokinetics in mice): 4 to 8 h | parent remaining in liver microsomes ([1]; dog, mouse, rat and monkey liver microsomes, at 30 min): 54-90% | shift in IC50 for PDE4D7-S129D inhibition in the presence of BSA (PDE4D7-S129D [2]): no shift

Structure (SMILES): O=C(O)Cc1ccc(Cc2cc(-c3cccc(Cl)c3)nc(C(F)(F)F)c2)cc1 [Compound 28, 2-(4-((2-(3-chlorophenyl)-6-(trifluoromethyl)pyridin-4-yl)methyl)phenyl)acetic acid]
emesis (cynomolgus monkeys): nor did it cause emesis | adverse CNS or pulmonary effects (rats [3]): no adverse CNS or pulmonary effects | Hill Slope PDE4D2 monomer (PDE4D2): 0.60± 0.16 | Hill Slope PDE4D7-S129(wt) dimer basal (PDE4D7-S129(wt)): 0.58 ± 0.11 | Hill Slope PDE4D7-S129D dimer activated (PDE4D7-S129D [4]): 0.55± 0.12 | IC50 (PDE1-11): > 10 µM | mutagenicity in bacteria (bacteria): not mutagenic | effect on anesthesia duration (mice [5]; doses of 3, 10 and 30 mg/kg PO): no significant effect | change in anesthesia duration (mice [5]; doses up to 30 mg/kg): no change | Hill Slope PDE4B1-S133D dimer activated (PDE4B1-S133D): 0.92 ± 0.21 | effect on cardiovascular function (dog): no effect | Hill Slope PDE4D-cat monomer (PDE4D-cat): 1.2 ± 0.10 | maturation of dendritic spines on layer 2/3 pyramidal cells (FMR1 knockout mice; FMR1 knockout mice): promotes | behavior of adult FMR1 knockout mice (FMR1 knockout mice): normalizes | Hill Slope PDE4D3-S54D dimer activated (PDE4D3-S54D): 0.68 ± 0.14 | potency in humanized PDE4D mice as compared to wild-type mice (humanized PDE4D mice): increased potency | brain cAMP (humanized PDE4D mice; mice): increases | late phase of hippocampal long-term potentiation (LTP) (humanized PDE4D mice; mice): augments | phosphorylation of CREB (humanized PDE4D mice; mice): increases | production of brain-derived neurotrophic factor (BDNF) in hippocampus (humanized PDE4D mice; mice): increases | short and long term memory (humanized PDE4D mice; mice): improves | doses that significantly improved novel object discrimination (mice [6]; oral (PO), versus vehicle): above 0.3 mg/kg | dose range finding toxicology findings (rats [7]): inappetence and weight loss | remaining in liver microsomes ([1]; rat, mouse and dog liver microsomes, after 30 min incubation): 88-100% | dose range finding toxicology findings (dogs): emesis, tremor and weight loss | emesis (ferrets): did not cause emesis | vascular toxicity and microscopic findings (rats and dogs): did not reveal vascular toxicity nor any other microscopic findings

Structure (SMILES): COc1ccc(C2CNC(=O)C2)cc1OC1CCCC1 (stereo not drawn) [rolipram, reference compound]
dose that significantly improved novel object discrimination (mice [6]; SC): 0.1 mg/kg
